Measurements published in patent US12723063B2, “GIPR-agonist compounds” (Eli Lilly and Company, priority 2019, dated 2026).
*1 amine or outer side, *2 acyl side, *3 side chain or, on linkers, in order; H or OH if unused. Where a SMILES comes first, the peptide text is derived from it. Side-chain parts run from the residue outwards. [ ]: non-standard residue; d: D form. The star is where a group is joined. C20 diacid = O=C(O)CCCCCCCCCCCCCCCCCCC(=O)*; γGlu = O=C(O)[C@H](CCC(=O)[*:2])N[*:1]; αMeY = C[C@](N)(Cc1ccc(O)cc1)C(=O)O; αMeL = CC(C)C[C@](C)(N)C(=O)O; Orn = NCCC[C@H](N)C(=O)O; AEEA = NCCOCCOCC(=O)O; Aib = CC(C)(N)C(=O)O

What was measured:
[1] = molecular target: T1, human GLP-1R (Homo sapiens, UniProt P43220); experiment: [125I]-GLP-1 binding, SPA with WGA beads, 0.1% bacitracin; settings: geometric mean, read-out: hGLP1R Ki
T1 construct: expressed in transfected cells; crude membranes
Experimental: (§1) Stably transfected cell lines are prepared by subcloning receptor cDNA into a pcDNA3 expression plasmid and transfected into human embryonic kidney (HEK) 293 (hGcgR and hGLP-1R) or Chinese Hamster Ovary (CHO) (hGIPR) cells followed by selection with Geneticin (hGLP-1R and hGIPR) or hygromycin B (hGcgR).
(§2) Two methods are used for the preparation of crude cell membranes.
(§3) Method 1: Frozen cell pellets are lysed on ice in hypotonic buffer containing 50 mM Tris HCl, pH 7.5, and Roche Complete™ Protease Inhibitors with EDTA. The cell suspension is disrupted using a glass Potter-Elvehjem homogenizer fitted with a Teflon® pestle for 25 strokes. The homogenate is centrifuged at 4° C. at 1100× g for 10 minutes. The supernatant is collected and stored on ice while the pellets are resuspended in homogenization buffer and rehomogenized as described above. The homogenate is centrifuged at 1100× g for 10 minutes. The second supernatant is combined with the first supernatant and centrifuged at 35000× g for 1 hour at 4° C. The resulting membrane pellet is resuspended in homogenization buffer containing protease inhibitors at approximately 1 to 3 mg/mL, quick frozen in liquid nitrogen and stored as aliquots in a −80° C. freezer until use.
(§4) Method 2: Frozen cell pellets are lysed on ice in hypotonic buffer containing 50 mM Tris HCl, pH 7.5, 1 mM MgCl2, Roche Complete™ EDTA-free Protease Inhibitors and 25 units/mL DNAse I (Invitrogen). The cell suspension is disrupted using a glass Potter-Elvehjem homogenizer fitted with a Teflon® pestle for 20 to 25 strokes. The homogenate is centrifuged at 4° C. at 1800× g for 15 minutes. The supernatant is collected and stored on ice while the pellets are resuspended in homogenization buffer (without DNAse I) and rehomogenized as described above. The homogenate is centrifuged at 1800× g for 15 minutes. The second supernatant is combined with the first supernatant and centrifuged an additional time at 1800× g for 15 minutes. The overall supernatant is then centrifuged at 25000× g for 30 minutes at 4° C. The resulting membrane pellet is resuspended in homogenization buffer (without DNAse I) containing protease inhibitors at approximately 1 to 3 mg/mL and stored as aliquots in a −80° C. freezer until use.
The binding buffer contains 25 mM HEPES, pH 7.4, 2.5 mM CaCl2), 1 mM MgCl2, 0.1% (w/v) bacitracin, 0.003% (w/v) TWEEN®-20, and Roche Complete™ Protease Inhibitors without EDTA.
(§5) Data are analyzed using four-parameter (curve maximum, curve minimum, IC50, Hill slope) nonlinear regression routines (Genedata Screener, version 12.0.4, Genedata AG, Basal, Switzerland). […] Values for Ki are reported as the geometric mean, with error expressed as the standard error of the mean (SEM) and n is equal to the number of independent replicates (determined in assays performed on different days). […] SEM is only calculated when […] or greater. Means are expressed as geometric means with the standard error of the mean (SEM) and the number of replicates (n) indicated in parentheses.

[2] = molecular target: T2, human GIPR (Homo sapiens, UniProt P48546); experiment: [125I]-GIP binding, SPA with WGA beads, 0.1% bacitracin; settings: geometric mean, read-out: hGIPR Ki
T2 construct: expressed in transfected cells; crude membranes
T2 sequence (P48546 22-466): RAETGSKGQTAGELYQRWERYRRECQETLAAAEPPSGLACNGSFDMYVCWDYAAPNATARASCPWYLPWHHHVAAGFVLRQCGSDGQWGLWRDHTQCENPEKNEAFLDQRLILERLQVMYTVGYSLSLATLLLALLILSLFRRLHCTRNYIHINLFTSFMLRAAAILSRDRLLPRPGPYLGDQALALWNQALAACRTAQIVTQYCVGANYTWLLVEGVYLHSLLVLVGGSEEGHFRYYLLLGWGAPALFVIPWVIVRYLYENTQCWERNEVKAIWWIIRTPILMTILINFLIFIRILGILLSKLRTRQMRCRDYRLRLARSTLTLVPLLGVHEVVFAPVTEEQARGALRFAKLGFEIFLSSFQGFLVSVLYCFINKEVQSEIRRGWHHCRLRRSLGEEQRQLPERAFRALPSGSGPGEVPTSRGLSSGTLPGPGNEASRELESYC
Experimental: as §1, §2, §3, §4
The binding buffer contains 25 mM HEPES, pH 7.4, 2.5 mM CaCl2), 1 mM MgCl2, 0.1% (w/v) bacitracin, 0.003% (w/v) TWEEN®-20, and Roche Complete™ Protease Inhibitors without EDTA. […] Plates are sealed and mixed on a plate shaker (setting 6) for 1 minute and read with a PerkinElmer Trilux MicroBeta® scintillation counter after 2.5 to 12 hours of incubation/settling time at room temperature.
as §5

T1 sequence (P43220 24-463): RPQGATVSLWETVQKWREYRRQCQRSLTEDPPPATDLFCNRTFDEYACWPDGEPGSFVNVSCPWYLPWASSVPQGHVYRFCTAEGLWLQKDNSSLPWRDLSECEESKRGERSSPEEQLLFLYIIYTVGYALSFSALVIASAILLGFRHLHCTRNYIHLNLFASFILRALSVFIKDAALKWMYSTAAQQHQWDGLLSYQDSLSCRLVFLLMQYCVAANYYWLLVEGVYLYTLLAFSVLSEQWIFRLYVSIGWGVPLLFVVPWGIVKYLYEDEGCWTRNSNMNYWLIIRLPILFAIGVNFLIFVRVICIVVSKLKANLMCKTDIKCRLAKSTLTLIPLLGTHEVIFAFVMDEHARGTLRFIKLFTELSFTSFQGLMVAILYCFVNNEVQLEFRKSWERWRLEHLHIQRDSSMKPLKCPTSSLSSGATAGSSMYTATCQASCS

**Q.** With `CC[C@H](C)[C@H](NC(=O)[C@H](Cc1ccccc1)NC(=O)[C@@H](NC(=O)CNC(=O)[C@H](CCC(=O)O)NC(=O)C(C)(C)NC(=O)[C@@H](N)Cc1ccc(O)cc1)[C@@H](C)O)C(=O)N[C@@H](CO)C(=O)N[C@@H](CC(=O)O)C(=O)N[C@@H](Cc1ccc(O)cc1)C(=O)N[C@@H](CO)C(=O)N[C@H](C(=O)N[C@@](C)(CC(C)C)C(=O)N[C@@H](CC(C)C)C(=O)N[C@@H](CC(=O)O)C(=O)N[C@@H](CCCCN)C(=O)N[C@@H](CCCCNC(=O)COCCOCCNC(=O)COCCOCCNC(=O)CC[C@H](NC(=O)CCCCCCCCCCCCCCCCCCC(=O)O)C(=O)O)C(=O)N[C@@H](Cc1c[nH]cn1)C(=O)N[C@@H](CCC(N)=O)C(=O)NC(C)(C)C(=O)N[C@@H](CC(=O)O)C(=O)N[C@@H](Cc1ccccc1)C(=O)N[C@H](C(=O)N[C@@H](CCC(=O)O)C(=O)N[C@@](C)(Cc1ccc(O)cc1)C(=O)N[C@@H](CC(C)C)C(=O)N[C@@H](CC(C)C)C(=O)N[C@@H](CCC(=O)O)C(=O)NCC(=O)NCC(=O)N1CCC[C@H]1C(=O)N[C@@H](CO)C(=O)N[C@@H](CO)C(=O)NCC(=O)N[C@@H](C)C(=O)N1CCC[C@H]1C(=O)N1CCC[C@H]1C(=O)N1CCC[C@H]1C(=O)N[C@@H](CO)C(N)=O)C(C)C)[C@@H](C)CC` [Example 91] (H-Y[Aib]EGTFISDYSI[αMeL]LDKK([AEEA-AEEA-γGlu-C20 diacid])HQ[Aib]DFVE[αMeY]LLEGGPSSGAPPPS-NH2) as the compound, how does the Ki [1] read?
**A.** 37.4 nM

**Q.** And the Ki [2]?
**A.** 0.122 nM

**Q.** `CC[C@H](C)[C@H](NC(=O)[C@H](Cc1ccccc1)NC(=O)[C@@H](NC(=O)CNC(=O)[C@H](CCC(=O)O)NC(=O)C(C)(C)NC(=O)[C@@H](N)Cc1ccc(O)cc1)[C@@H](C)O)C(=O)N[C@@H](CO)C(=O)N[C@@H](CC(=O)O)C(=O)N[C@@H](Cc1ccc(O)cc1)C(=O)N[C@@H](CO)C(=O)N[C@H](C(=O)N[C@@](C)(CC(C)C)C(=O)N[C@@H](CC(C)C)C(=O)N[C@@H](CC(=O)O)C(=O)N[C@@H](CCC(=O)O)C(=O)N[C@@H](CCCCNC(=O)COCCOCCNC(=O)COCCOCCNC(=O)CC[C@H](NC(=O)CCCCCCCCCCCCCCCCCCC(=O)O)C(=O)O)C(=O)N[C@@H](Cc1c[nH]cn1)C(=O)N[C@@H](CCC(N)=O)C(=O)NC(C)(C)C(=O)N[C@@H](CC(=O)O)C(=O)N[C@@H](Cc1ccccc1)C(=O)N[C@H](C(=O)N[C@@H](CCC(=O)O)C(=O)N[C@@H](Cc1ccncc1)C(=O)N[C@@H](CC(C)C)C(=O)N[C@@H](CC(C)C)C(=O)N[C@@H](C)C(=O)N[C@@H](C)C(=O)NCC(=O)N1CCC[C@H]1C(=O)N[C@@H](CO)C(=O)N[C@@H](CO)C(=O)NCC(=O)N[C@@H](C)C(=O)N1CCC[C@H]1C(=O)N1CCC[C@H]1C(=O)N1CCC[C@H]1C(=O)N[C@@H](CO)C(N)=O)C(C)C)[C@@H](C)CC` [Example 85] was tested. Which Ki [1] did it give?
**A.** 220 nM

**Q.** And the Ki [2]?
**A.** 0.0529 nM

**Q.** With `CC[C@H](C)[C@H](NC(=O)[C@H](CCCN)NC(=O)[C@H](CC(=O)O)NC(=O)[C@H](CC(C)C)NC(=O)[C@](C)(CC(C)C)NC(=O)[C@@H](NC(=O)[C@H](CO)NC(=O)[C@H](Cc1ccc(O)cc1)NC(=O)[C@H](CC(=O)O)NC(=O)[C@H](CO)NC(=O)[C@@H](NC(=O)[C@H](Cc1ccccc1)NC(=O)[C@@H](NC(=O)CNC(=O)[C@H](CCC(=O)O)NC(=O)C(C)(C)NC(=O)[C@@H](N)Cc1ccc(O)cc1)[C@@H](C)O)[C@@H](C)CC)[C@@H](C)CC)C(=O)N[C@@H](CCCNC(=N)N)C(=O)N[C@@H](CCC(N)=O)C(=O)NC(C)(C)C(=O)N[C@@H](CC(=O)O)C(=O)N[C@@H](Cc1ccccc1)C(=O)N[C@H](C(=O)N[C@@H](CCC(=O)O)C(=O)N[C@@H](Cc1ccc(O)cc1)C(=O)N[C@@H](CCCCNC(=O)COCCOCCNC(=O)COCCOCCNC(=O)CC[C@H](NC(=O)CCCCCCCCCCCCCCCCCCC(=O)O)C(=O)O)C(=O)N[C@@H](CC(C)C)C(=O)N[C@@H](CCC(=O)O)C(=O)NCC(=O)NCC(=O)N1CCC[C@H]1C(=O)N[C@@H](CO)C(=O)N[C@@H](CO)C(=O)NCC(=O)N[C@@H](C)C(=O)N1CCC[C@H]1C(=O)N1CCC[C@H]1C(=O)N1CCC[C@H]1C(=O)N[C@@H](CO)C(N)=O)C(C)C` [Example 116] (H-Y[Aib]EGTFISDYSI[αMeL]LD[Orn]IRQ[Aib]DFVEYK([AEEA-AEEA-γGlu-C20 diacid])LEGGPSSGAPPPS-NH2) as the compound, how does the Ki [1] read?
**A.** > 912 nM

**Q.** And the Ki [2]?
**A.** 0.166 nM

**Q.** For `CC[C@H](C)[C@H](NC(=O)[C@H](Cc1ccccc1)NC(=O)[C@@H](NC(=O)CNC(=O)[C@H](CCC(=O)O)NC(=O)C(C)(C)NC(=O)[C@@H](N)Cc1ccc(O)cc1)[C@@H](C)O)C(=O)N[C@@H](CO)C(=O)N[C@@H](CC(=O)O)C(=O)N[C@@H](Cc1ccc(O)cc1)C(=O)N[C@@H](CO)C(=O)N[C@H](C(=O)N[C@@](C)(CC(C)C)C(=O)N[C@@H](CC(C)C)C(=O)N[C@@H](CC(=O)O)C(=O)N[C@@H](CCCCN)C(=O)N[C@@H](CCCCNC(=O)COCCOCCNC(=O)COCCOCCNC(=O)CC[C@H](NC(=O)CCCCCCCCCCCCCCCCCCC(=O)O)C(=O)O)C(=O)N[C@@H](Cc1c[nH]cn1)C(=O)N[C@@H](CCC(N)=O)C(=O)NC(C)(C)C(=O)N[C@@H](CC(=O)O)C(=O)N[C@@H](Cc1ccccc1)C(=O)N[C@H](C(=O)N[C@@H](CCC(=O)O)C(=O)N[C@@H](Cc1ccncc1)C(=O)N[C@@H](CC(C)C)C(=O)N[C@@H](CC(C)C)C(=O)N[C@@H](C)C(=O)N[C@@H](C)C(=O)NCC(=O)N1CCC[C@H]1C(=O)N[C@@H](CO)C(=O)N[C@@H](CO)C(=O)NCC(=O)N[C@@H](C)C(=O)N1CCC[C@H]1C(=O)N1CCC[C@H]1C(=O)N1CCC[C@H]1C(=O)N[C@@H](CO)C(N)=O)C(C)C)[C@@H](C)CC` [Example 78], which Ki [1] is on record?
**A.** 394 nM

**Q.** What about the Ki [2] of the same compound?
**A.** 0.0236 nM

**Q.** Which Ki [1] does the source give for `CC[C@H](C)[C@H](NC(=O)[C@H](CCCCN)NC(=O)[C@H](CC(=O)O)NC(=O)[C@H](CC(C)C)NC(=O)[C@](C)(CC(C)C)NC(=O)[C@@H](NC(=O)[C@H](CO)NC(=O)[C@H](Cc1ccc(O)cc1)NC(=O)[C@H](CC(=O)O)NC(=O)[C@H](CO)NC(=O)[C@@H](NC(=O)[C@H](Cc1ccccc1)NC(=O)[C@@H](NC(=O)CNC(=O)[C@H](CCC(=O)O)NC(=O)C(C)(C)NC(=O)[C@@H](N)Cc1ccc(O)cc1)[C@@H](C)O)[C@@H](C)CC)[C@@H](C)CC)C(=O)N[C@@H](CCCNC(=N)N)C(=O)N[C@@H](CCC(N)=O)C(=O)NC(C)(C)C(=O)N[C@@H](CC(=O)O)C(=O)N[C@@H](Cc1ccccc1)C(=O)N[C@H](C(=O)N[C@@H](CCC(=O)O)C(=O)N[C@@H](Cc1ccc(O)cc1)C(=O)N[C@@H](CCCCNC(=O)COCCOCCNC(=O)COCCOCCNC(=O)CC[C@H](NC(=O)CCCCCCCCCCCCCCCCCCC(=O)O)C(=O)O)C(=O)N[C@@H](CC(C)C)C(=O)N[C@@H](CCC(=O)O)C(=O)NCC(=O)NCC(=O)N1CCC[C@H]1C(=O)N[C@@H](CO)C(=O)N[C@@H](CO)C(=O)NCC(=O)N[C@@H](C)C(=O)N1CCC[C@H]1C(=O)N1CCC[C@H]1C(=O)N1CCC[C@H]1C(=O)N[C@@H](CO)C(N)=O)C(C)C` [Example 115] (H-Y[Aib]EGTFISDYSI[αMeL]LDKIRQ[Aib]DFVEYK([AEEA-AEEA-γGlu-C20 diacid])LEGGPSSGAPPPS-NH2) here?
**A.** > 912 nM

**Q.** What about the Ki [2] of the same compound?
**A.** 0.0997 nM
